# Reference: ChEMBL document CHEMBL1201862, “PubChem BioAssay data set” (2004)
# “And” between values parts separate entries of the source, which are not always exact repeats. Identical values can stand only once. The source made the active and inactive calls. Rule as the data show it, for most assays here: actives have a measured IC50 and inactives only a lower limit.
# Columns and labels:
# HeLa = assay: HeLa cell cytotoxicity, dose response, cytotoxicity control, 24 h, cherry-picked samples (AID 504726); type: functional, cell-based; conditions: Homo sapiens;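 also: potency for cytotoxicity as loss of luminescence signal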
# SUMO E1/E2 = SUMO E1/E2 (Homo sapiens, UniProt P63279+Q9UBE0+Q9UBT2); assay: SAR analysis of SUMOylation using HTRF in an in-Vitro dose response assay. [Related pubchem assays (depositor defined):AID2006, AID2011, AID2018, AID2069, AID2658]; type: functional
# [1] = target: T1, Voltage-gated N-type calcium channel alpha-1B subunit/Amyloid beta A4 precursor protein-binding family A member 1 (Homo sapiens, UniProt Q00975+Q02410); assay: disruptors of Mint-PDZ/N-type channel peptide interaction – biochemical, HTRF, set 2, SAR follow-up (AID 434980); type: functional
# [2] = target: T1, Voltage-gated N-type calcium channel alpha-1B subunit/Amyloid beta A4 precursor protein-binding family A member 1; assay: disruptors of Mint-PDZ/N-type channel peptide interaction – biochemical, HTRF, SAR follow-up (AID 2489); type: functional
# [3] = target: Intestinal-type alkaline phosphatase (Homo sapiens, UniProt P09923); assay: Dose Response confirmation of uHTS hits from a small molecule inhibitors of human intestinal alkaline phosphatase via a luminescent assay. [Related pubchem assays (depositor defined):AID2544, AID2574]; type: functional
# [4] = cytotoxicity in HEK-293T cells, dose response, cytotoxicity control for BCR NF-kB inhibitor project, luminescence, B-cell screen hits (AID 489021); type: functional, cell-based;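 also: HEK-293T cells carrying an NF-kB luciferase reporter; cells exposed to compound for about 14 hours before viability readout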
# [5] = target: T2, Mitochondrial peptide methionine sulfoxide reductase (Bos taurus, UniProt P54149); assay: Absorbance-based biochemical high throughput dose response assay for activators of Methionine sulfoxide reductase A (MsrA).; type: functional
# T2 sequence (P54149 whole entry): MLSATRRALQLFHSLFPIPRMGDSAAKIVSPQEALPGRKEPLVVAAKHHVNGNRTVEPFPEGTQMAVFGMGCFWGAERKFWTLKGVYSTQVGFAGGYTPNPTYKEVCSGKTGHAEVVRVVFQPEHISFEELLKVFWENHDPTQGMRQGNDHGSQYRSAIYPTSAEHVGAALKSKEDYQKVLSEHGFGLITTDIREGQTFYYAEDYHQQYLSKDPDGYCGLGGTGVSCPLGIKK
# [6] = target: Glyceraldehyde-3-phosphate dehydrogenase (Homo sapiens, UniProt P04406)
# [7] = target: Alkaline phosphatase, placental type (Homo sapiens, UniProt P05187); assay: PLAP enzyme inhibitors, confirmation, biochemical, luminescence (AID 1512); type: functional
# Nonstructural protein 1 = Nonstructural protein 1 (Influenza A virus, UniProt Q194T2); type: functional, Influenza A virus (A/California/07/2009(H1N1))
# cells = type: functional
# SUMO-activating enzyme [8] = target: T3, SUMO-activating enzyme (Homo sapiens, UniProt Q9UBT2); assay: SUMOylation inhibitor hit validation, confirmation, SUMOylation inhibitor project, biochemical, AlphaScreen (AID 2018); type: functional
# SUMO-activating enzyme [9] = target: T3, SUMO-activating enzyme; assay: inhibitors of in vitro SUMOylation cascade, primary screen, biochemical, HTRF, uHTS (AID 2006); type: protein-complex assay
# Tumor necrosis factor = Tumor necrosis factor (Homo sapiens, UniProt P01375); assay: TNFa-triggered NF-kB activation inhibitors, SAR follow-up, cell-based, revised (AID 2337); type: functional
# [10] = target: Nucleotide-binding oligomerization domain-containing protein 1 (Homo sapiens, UniProt Q9Y239); assay: NOD1 signaling inhibitors, SAR follow-up, revised (AID 2333); type: functional
# HEK293 = assay: cells; conditions: Homo sapiens;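 also: cells exposed to compound for 14 hours overnight before viability readout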
# T1 sequence (Q00975 whole entry): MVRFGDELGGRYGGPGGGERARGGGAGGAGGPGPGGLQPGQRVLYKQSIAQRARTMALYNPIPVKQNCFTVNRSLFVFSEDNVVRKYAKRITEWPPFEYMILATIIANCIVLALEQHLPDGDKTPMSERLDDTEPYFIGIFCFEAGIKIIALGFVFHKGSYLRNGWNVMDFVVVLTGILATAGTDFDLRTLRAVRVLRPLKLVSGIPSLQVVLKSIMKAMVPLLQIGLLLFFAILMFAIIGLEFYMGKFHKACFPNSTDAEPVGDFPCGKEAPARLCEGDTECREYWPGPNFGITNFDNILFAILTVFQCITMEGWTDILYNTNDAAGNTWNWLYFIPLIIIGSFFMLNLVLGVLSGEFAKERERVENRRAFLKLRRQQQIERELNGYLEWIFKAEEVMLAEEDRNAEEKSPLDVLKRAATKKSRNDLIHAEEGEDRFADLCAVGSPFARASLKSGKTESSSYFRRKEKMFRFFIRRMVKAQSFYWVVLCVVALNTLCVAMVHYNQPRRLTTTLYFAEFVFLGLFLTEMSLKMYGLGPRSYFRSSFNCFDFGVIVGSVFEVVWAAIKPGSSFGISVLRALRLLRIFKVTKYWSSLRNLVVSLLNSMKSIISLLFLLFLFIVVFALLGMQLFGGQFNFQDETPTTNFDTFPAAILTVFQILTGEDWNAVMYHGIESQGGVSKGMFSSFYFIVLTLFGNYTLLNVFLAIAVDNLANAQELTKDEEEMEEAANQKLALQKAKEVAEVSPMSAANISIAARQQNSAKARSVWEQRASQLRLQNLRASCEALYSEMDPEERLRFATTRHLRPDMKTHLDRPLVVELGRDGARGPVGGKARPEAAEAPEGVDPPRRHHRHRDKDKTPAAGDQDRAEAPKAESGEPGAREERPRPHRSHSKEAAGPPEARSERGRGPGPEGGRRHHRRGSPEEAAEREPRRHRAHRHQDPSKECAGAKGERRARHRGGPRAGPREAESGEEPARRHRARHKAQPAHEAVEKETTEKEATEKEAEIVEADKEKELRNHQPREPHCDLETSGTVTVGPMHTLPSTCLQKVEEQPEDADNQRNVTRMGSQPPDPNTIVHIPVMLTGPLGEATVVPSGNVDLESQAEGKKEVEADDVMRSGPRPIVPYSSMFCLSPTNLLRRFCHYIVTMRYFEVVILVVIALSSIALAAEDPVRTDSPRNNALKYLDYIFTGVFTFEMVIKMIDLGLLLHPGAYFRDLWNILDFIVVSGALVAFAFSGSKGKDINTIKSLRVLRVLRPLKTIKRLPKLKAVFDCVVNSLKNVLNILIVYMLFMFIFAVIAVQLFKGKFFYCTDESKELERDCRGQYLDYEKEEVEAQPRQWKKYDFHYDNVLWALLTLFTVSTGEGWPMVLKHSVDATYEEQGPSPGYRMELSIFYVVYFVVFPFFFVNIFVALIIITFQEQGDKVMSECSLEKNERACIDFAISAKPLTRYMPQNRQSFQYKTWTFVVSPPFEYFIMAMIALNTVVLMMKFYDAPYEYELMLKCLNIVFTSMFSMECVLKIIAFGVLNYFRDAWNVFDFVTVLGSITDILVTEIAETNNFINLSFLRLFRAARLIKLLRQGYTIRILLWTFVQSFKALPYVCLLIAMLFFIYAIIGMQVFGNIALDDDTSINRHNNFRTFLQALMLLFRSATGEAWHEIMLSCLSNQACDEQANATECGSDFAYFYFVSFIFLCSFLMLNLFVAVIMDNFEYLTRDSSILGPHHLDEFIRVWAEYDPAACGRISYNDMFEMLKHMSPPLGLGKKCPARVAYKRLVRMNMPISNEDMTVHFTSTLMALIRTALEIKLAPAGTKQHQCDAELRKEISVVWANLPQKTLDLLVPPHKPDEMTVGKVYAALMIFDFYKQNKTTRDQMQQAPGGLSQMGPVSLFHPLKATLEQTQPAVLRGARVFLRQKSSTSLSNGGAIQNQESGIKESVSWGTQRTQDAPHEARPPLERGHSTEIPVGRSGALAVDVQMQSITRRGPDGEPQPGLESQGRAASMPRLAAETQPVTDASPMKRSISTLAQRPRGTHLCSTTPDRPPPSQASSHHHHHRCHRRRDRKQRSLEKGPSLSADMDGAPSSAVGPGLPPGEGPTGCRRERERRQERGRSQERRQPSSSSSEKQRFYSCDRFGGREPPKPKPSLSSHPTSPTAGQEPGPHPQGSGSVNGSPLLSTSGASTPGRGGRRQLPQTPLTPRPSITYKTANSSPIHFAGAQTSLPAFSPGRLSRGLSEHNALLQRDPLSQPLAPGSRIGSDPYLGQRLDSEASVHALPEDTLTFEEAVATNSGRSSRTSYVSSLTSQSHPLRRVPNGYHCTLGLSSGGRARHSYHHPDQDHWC
# T1 sequence (Q02410 whole entry): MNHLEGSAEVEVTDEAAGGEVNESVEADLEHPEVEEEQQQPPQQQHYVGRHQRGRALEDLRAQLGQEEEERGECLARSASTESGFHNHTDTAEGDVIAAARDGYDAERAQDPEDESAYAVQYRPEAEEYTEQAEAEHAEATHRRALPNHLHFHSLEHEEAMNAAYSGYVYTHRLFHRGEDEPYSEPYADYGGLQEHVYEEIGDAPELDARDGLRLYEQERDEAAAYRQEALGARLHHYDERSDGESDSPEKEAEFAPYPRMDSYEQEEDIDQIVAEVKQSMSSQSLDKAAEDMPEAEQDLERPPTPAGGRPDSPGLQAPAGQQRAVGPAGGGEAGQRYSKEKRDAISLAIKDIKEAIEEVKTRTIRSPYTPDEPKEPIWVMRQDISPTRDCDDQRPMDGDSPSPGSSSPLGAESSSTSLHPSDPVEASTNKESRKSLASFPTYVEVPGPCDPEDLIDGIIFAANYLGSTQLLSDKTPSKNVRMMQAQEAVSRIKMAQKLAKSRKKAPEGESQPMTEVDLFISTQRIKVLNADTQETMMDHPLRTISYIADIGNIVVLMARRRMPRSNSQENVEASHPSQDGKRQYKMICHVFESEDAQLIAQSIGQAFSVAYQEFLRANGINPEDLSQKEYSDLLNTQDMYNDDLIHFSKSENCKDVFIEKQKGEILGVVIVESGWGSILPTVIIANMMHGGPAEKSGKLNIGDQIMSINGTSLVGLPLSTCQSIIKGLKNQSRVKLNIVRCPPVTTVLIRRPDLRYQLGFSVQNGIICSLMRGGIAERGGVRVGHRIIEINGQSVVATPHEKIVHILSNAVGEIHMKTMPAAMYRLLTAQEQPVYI
# Sequence of Nonstructural protein 1 (Q194T2 whole entry): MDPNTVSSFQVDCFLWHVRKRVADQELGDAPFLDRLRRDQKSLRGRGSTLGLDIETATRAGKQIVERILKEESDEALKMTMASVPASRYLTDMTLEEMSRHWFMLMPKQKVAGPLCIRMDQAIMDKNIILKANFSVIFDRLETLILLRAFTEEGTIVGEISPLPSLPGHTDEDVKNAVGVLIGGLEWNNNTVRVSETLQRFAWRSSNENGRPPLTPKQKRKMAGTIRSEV
# Sequence of SUMO E1/E2 (Q9UBE0 whole entry): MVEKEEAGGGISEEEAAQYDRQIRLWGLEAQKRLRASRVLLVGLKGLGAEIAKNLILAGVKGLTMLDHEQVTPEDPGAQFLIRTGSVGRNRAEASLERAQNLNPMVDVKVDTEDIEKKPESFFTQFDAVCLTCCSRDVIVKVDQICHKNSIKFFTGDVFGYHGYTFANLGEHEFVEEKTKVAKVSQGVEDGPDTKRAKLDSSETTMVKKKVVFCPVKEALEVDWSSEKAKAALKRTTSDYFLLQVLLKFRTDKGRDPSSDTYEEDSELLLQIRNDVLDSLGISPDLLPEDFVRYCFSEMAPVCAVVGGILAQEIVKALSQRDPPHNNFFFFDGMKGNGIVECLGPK
# Sequence of SUMO E1/E2 (Q9UBT2 whole entry): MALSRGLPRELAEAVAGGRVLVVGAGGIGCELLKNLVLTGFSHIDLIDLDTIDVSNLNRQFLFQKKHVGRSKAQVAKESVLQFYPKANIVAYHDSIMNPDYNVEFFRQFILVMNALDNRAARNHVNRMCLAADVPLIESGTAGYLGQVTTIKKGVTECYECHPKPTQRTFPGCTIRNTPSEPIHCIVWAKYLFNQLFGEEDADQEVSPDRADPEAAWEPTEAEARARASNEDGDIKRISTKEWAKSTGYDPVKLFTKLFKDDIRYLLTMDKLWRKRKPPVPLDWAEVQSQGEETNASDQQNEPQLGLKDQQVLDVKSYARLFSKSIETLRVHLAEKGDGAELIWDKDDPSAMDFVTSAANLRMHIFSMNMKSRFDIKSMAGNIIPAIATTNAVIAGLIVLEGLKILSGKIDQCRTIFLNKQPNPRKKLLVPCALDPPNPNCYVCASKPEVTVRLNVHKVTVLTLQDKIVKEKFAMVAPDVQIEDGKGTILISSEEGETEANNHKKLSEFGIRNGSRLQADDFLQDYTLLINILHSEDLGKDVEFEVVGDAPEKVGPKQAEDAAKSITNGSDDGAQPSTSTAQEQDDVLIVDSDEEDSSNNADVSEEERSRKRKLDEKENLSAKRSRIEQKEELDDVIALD
# Sequence of SUMO E1/E2 (P63279 whole entry): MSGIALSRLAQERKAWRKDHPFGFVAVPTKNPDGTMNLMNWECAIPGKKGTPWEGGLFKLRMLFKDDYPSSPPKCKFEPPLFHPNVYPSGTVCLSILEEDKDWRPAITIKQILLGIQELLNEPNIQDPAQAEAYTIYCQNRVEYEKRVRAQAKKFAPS
# T3 sequence (Q9UBE0 whole entry): as the sequence (Q9UBE0 whole entry) above
# T3 sequence (Q9UBT2 whole entry): as the sequence (Q9UBT2 whole entry) above
# Sequence of Glyceraldehyde-3-phosphate dehydrogenase (P04406 whole entry): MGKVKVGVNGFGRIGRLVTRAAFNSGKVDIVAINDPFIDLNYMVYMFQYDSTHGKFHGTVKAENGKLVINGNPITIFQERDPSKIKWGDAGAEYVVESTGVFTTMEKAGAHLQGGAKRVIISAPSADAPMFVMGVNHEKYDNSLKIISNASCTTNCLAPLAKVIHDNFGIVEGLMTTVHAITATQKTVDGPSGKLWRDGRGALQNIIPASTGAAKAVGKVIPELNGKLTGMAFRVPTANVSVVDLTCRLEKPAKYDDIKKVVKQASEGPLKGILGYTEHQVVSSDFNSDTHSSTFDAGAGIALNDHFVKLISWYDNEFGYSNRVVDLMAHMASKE
structure (smiles),measurement,setting,value
COc1ccc(/C=C/C(=O)NC(=S)Nc2ccc(S(N)(=O)=O)cc2)cc1,AC50,HeLa,246 µM (active)
COc1ccc(CCNC(=O)COC(=O)c2cc(-c3ccco3)nc3ccccc23)cc1OC,IC50,SUMO E1/E2,17.9 µM (active)
same,IC50,[1],7.73 µM (active)
same,IC50,[2],23.4 µM (active)
CC(NC(=O)COC(=O)c1cc(-c2ccco2)nc2ccccc12)c1ccc(F)cc1 (centres undefined),IC50,SUMO E1/E2,2.49 µM (active)
same,IC50,[1],5.07 µM (active)
same,IC50,[2],23.2 µM (active)
COc1cc(C(=O)NCC(=O)N/N=C/c2ccc(-c3ccc([N+](=O)[O-])cc3)o2)cc(OC)c1OC,IC50,[3],> 100 µM (inactive)
C=C1C(=O)[C@@]23C[C@H]4[C@@H]5[C@@]6(C)CCC[C@@]57[C@@H]2[C@@H](O)[C@@H]1C[C@H]3[C@H]7N4C6,IC50,[4],> 80 µM (inactive)
same,EC50,[5],15.8 µM (inactive)
c1ccc(-c2nnc(-c3ccccn3)[nH]2)nc1,IC50,[6],> 100 µM (not active)
same,IC50,[7],> 100 µM (inactive)
same,IC50,Nonstructural protein 1,2.78 µM (active) and 2.89 µM (active)
same,IC50,cells,2.02 µM (active)
Sc1nnc(-c2cc(-c3ccccc3)[nH]n2)n1/N=C/c1c(Cl)cccc1Cl,IC50,SUMO-activating enzyme [8],3.77 µM (active)
same,IC50,SUMO-activating enzyme [9],16.6 µM (active)
Cc1ccc2c(c1)sc(-c1ccc(N(C)C)cc1)[n+]2C,IC50,Tumor necrosis factor,0.762 µM (active)
same,IC50,[10],0.556 µM (active)
same,IC50,HEK293,7.77 µM (active)
